According to PubChem BioAssay AID248 (DTP/NCI, 2004):
Inconclusive results and toxic doses are left out.

System: L1210 leukemia ip in BDF1 mice, survival T/C
Assay: NCI In Vivo Anticancer Drug Screen. Data for tumor model L1210 Leukemia (intraperitoneal) in B6D2F1 (BDF1) mice
Conditions: endpoint: mean survival time, higher = longer survival
Method in brief: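 Value reflects the ratio of survival in compound-treated mice to survival in vehicle-treated controls, with both groups carrying the same transplanted tumor.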

[1] = dose: 100.0 mg/kg/injection, schedule: Q01DX009 (ip), vehicle: saline with Tween-80
[2] = dose: 200.0 mg/kg/injection, schedule: Q01DX009 (ip), vehicle: saline with Tween-80
[3] = dose: 400.0 mg/kg/injection, schedule: Q01DX009 (ip), vehicle: saline with Tween-80
[4] = dose: 100.0 mg/kg/injection, schedule: Q04DX003 (ip), vehicle: saline with Tween-80
[5] = dose: 200.0 mg/kg/injection, schedule: Q04DX003 (ip), vehicle: saline with Tween-80
[6] = dose: 100.0 mg/kg/injection, schedule: Q01DX001 (ip), vehicle: saline
[7] = dose: 200.0 mg/kg/injection, schedule: Q01DX001 (ip), vehicle: saline
[8] = dose: 400.0 mg/kg/injection, schedule: Q01DX001 (ip), vehicle: saline
[9] = dose: 400.0 mg/kg/injection, schedule: Q04DX003 (ip), vehicle: saline with Tween-80
[10] = dose: 50.0 mg/kg/injection, schedule: Q01DX001 (ip), vehicle: saline
[11] = dose: 100.0 mg/kg/injection, schedule: Q01DX001 (ip), vehicle: saline with Tween-80
[12] = dose: 200.0 mg/kg/injection, schedule: Q01DX001 (ip), vehicle: saline with Tween-80

CN=Cc1ccc([N+](=O)[O-])cc1
T/C (dose: 75.0 mg/kg/injection, schedule: Q01DX001 (ip), vehicle: Klucel (hydroxypropylcellulose) (HPC)): 91 % of control
T/C (dose: 75.0 mg/kg/injection, schedule: Q01DX009 (ip), vehicle: Klucel (hydroxypropylcellulose) (HPC)): 96 % of control
T/C (dose: 150.0 mg/kg/injection, schedule: Q01DX001 (ip), vehicle: Klucel (hydroxypropylcellulose) (HPC)): 91 % of control
T/C (dose: 150.0 mg/kg/injection, schedule: Q01DX009 (ip), vehicle: Klucel (hydroxypropylcellulose) (HPC)): 105 % of control
T/C (dose: 300.0 mg/kg/injection, schedule: Q01DX001 (ip), vehicle: Klucel (hydroxypropylcellulose) (HPC)): 96 % of control
T/C (dose: 300.0 mg/kg/injection, schedule: Q01DX009 (ip), vehicle: Klucel (hydroxypropylcellulose) (HPC)): 95 % of control

Cc1cccc(Cl)c1NC(=O)CCCl
T/C [1]: 103 % of control
T/C [2]: 104 % of control
T/C [3]: 90 % of control

O=C(O)C(O)C(O)C(O)C(O)C(O)CO.[Fe] (configuration not stated)
T/C (dose: 75.0 mg/kg/injection, schedule: Q01DX001 (ip), vehicle: saline): 95 % of control

Cc1ccc(C(=O)CCl)o1
T/C [4]: 106 % of control
T/C [5]: 116 % of control

CCCCCCNC1=C(C)C(=O)C(NCCCCCC)=C(C)C1=O
T/C [6]: 104 % of control
T/C [7]: 104 % of control
T/C [8]: 93 % of control

CC(C1CCC2CCC3CCCC1C32)C1CCC2CCC3CCCC1C32 (configuration not stated)
T/C (dose: 100.0 mg/kg/injection, schedule: Q01DX001 (ip), vehicle: other): 99 % of control
T/C (dose: 200.0 mg/kg/injection, schedule: Q01DX001 (ip), vehicle: other): 103 % of control
T/C (dose: 400.0 mg/kg/injection, schedule: Q01DX001 (ip), vehicle: other): 101 % of control

CCCCN=C(C(=O)NCCCC)c1ccccc1NC(C)=O
T/C (dose: 100.0 mg/kg/injection, schedule: Q01DX009 (ip), vehicle: Klucel (hydroxypropylcellulose) (HPC)): 97 % of control
T/C (dose: 200.0 mg/kg/injection, schedule: Q01DX009 (ip), vehicle: Klucel (hydroxypropylcellulose) (HPC)): 86 % of control

O=C(O)C(O)(c1ccccc1)C(O)c1ccccc1 (configuration not stated)
T/C [1]: 113 % of control
T/C [4]: 100 % of control
T/C [2]: 97 % of control
T/C [5]: 100 % of control
T/C [3]: 98 % of control
T/C [9]: 95 % of control

CC(=O)[O][Hg][c]1c(C)c(C)c(C)c(C)c1C
T/C (dose: 12.5 mg/kg/injection, schedule: Q04DX003 (ip), vehicle: saline with Tween-80): 87 % of control
T/C (dose: 25.0 mg/kg/injection, schedule: Q04DX003 (ip), vehicle: saline with Tween-80): 87 % of control
T/C (dose: 50.0 mg/kg/injection, schedule: Q04DX003 (ip), vehicle: saline with Tween-80): 87 % of control

O=c1[nH]c(=S)[nH]c(-c2ccccc2)c1Cc1ccccc1
T/C [10]: 100 % of control
T/C [6]: 96 % of control
T/C [7]: 94 % of control
T/C [8]: 94 % of control

CS(=O)(=O)CC1OC(n2nnc3c(N)ncnc32)C(O)C1O (configuration not stated)
T/C (dose: 50.0 mg/kg/injection, schedule: Q01DX001 (ip), vehicle: saline with Tween-80): 94 % of control
T/C [11]: 102 % of control
T/C [12]: 94 % of control

O=[N+]([O-])c1ccc(/C=C/c2nnc(/C=C/c3ccc([N+](=O)[O-])cc3)o2)cc1
T/C (dose: 50.0 mg/kg/injection, schedule: Q04DX002 (ip), vehicle: saline with Tween-80): 100 % of control
T/C (dose: 100.0 mg/kg/injection, schedule: Q04DX002 (ip), vehicle: saline with Tween-80): 89 % of control
T/C (dose: 200.0 mg/kg/injection, schedule: Q04DX002 (ip), vehicle: saline with Tween-80): 92 % of control
T/C (dose: 400.0 mg/kg/injection, schedule: Q04DX002 (ip), vehicle: saline with Tween-80): 100 % of control

N#Cc1ccc(OCCCOc2ccccc2)cc1
T/C [11]: 100 % of control
T/C [12]: 102 % of control
T/C (dose: 400.0 mg/kg/injection, schedule: Q01DX001 (ip), vehicle: saline with Tween-80): 93 % of control

NC(=NC1CCC(C2CCC(N)CC2)CC1)C(N)=NC1CCC(C2CCC(N)CC2)CC1 (configuration not stated)
T/C [1]: 98 % of control
T/C [4]: 100 % of control
T/C [2]: 98 % of control
T/C [5]: 91 % of control
T/C [3]: 98 % of control
T/C [9]: 95 % of control

BrCCCC[P+](c1ccccc1)(c1ccccc1)c1ccccc1
T/C (dose: 12.5 mg/kg/injection, schedule: Q04DX003 (ip), vehicle: Klucel (hydroxypropylcellulose) (HPC)): 95 % of control
T/C (dose: 25.0 mg/kg/injection, schedule: Q04DX003 (ip), vehicle: Klucel (hydroxypropylcellulose) (HPC)): 106 % of control
T/C [10]: 107 % of control
T/C (dose: 50.0 mg/kg/injection, schedule: Q04DX003 (ip), vehicle: Klucel (hydroxypropylcellulose) (HPC)): 98 % of control
T/C [6]: 110 % of control

CCC(=O)NC(N)=S
T/C (dose: 25.0 mg/kg/injection, schedule: Q01DX009 (ip), vehicle: Klucel (hydroxypropylcellulose) (HPC)): 96 % of control
T/C (dose: 50.0 mg/kg/injection, schedule: Q01DX009 (ip), vehicle: Klucel (hydroxypropylcellulose) (HPC)): 94 % of control

CC/C=N\N=C(N)N
T/C (dose: 15.0 mg/kg/injection, schedule: Q01DX Z (ip), vehicle: saline): 101 % of control
T/C (dose: 30.0 mg/kg/injection, schedule: Q01DX Z (ip), vehicle: saline): 106 % of control
T/C (dose: 60.0 mg/kg/injection, schedule: Q01DX Z (ip), vehicle: saline): 100 % of control
T/C (dose: 120.0 mg/kg/injection, schedule: Q01DX010 (oral), vehicle: saline): 94 % of control
T/C (dose: 120.0 mg/kg/injection, schedule: Q01DX Z (ip), vehicle: saline): 100 % of control
T/C (dose: 240.0 mg/kg/injection, schedule: Q01DX010 (oral), vehicle: saline): 98 % of control
T/C (dose: 240.0 mg/kg/injection, schedule: Q01DX Z (ip), vehicle: saline): 95 % of control

CCCCS(=O)(=O)N(CC)CC
T/C (dose: 100.0 mg/kg/injection, schedule: Q01DX009 (ip), vehicle: carboxymethylcellulose (CMC)): 109 % of control
T/C (dose: 200.0 mg/kg/injection, schedule: Q01DX009 (ip), vehicle: carboxymethylcellulose (CMC)): 96 % of control

N#Cc1[nH]cnc1/N=N/N(CCF)CCF
T/C (dose: 9.5 mg/kg/injection, schedule: Q01DX009 (ip), vehicle: saline with Tween-80): 101 % of control
T/C (dose: 18.0 mg/kg/injection, schedule: Q01DX009 (ip), vehicle: saline with Tween-80): 121 % of control
T/C (dose: 18.0 mg/kg/injection, schedule: Q04DX003 (ip), vehicle: saline with Tween-80): 98 % of control
T/C (dose: 37.0 mg/kg/injection, schedule: Q04DX003 (ip), vehicle: saline with Tween-80): 116 % of control

CNc1nc(Nc2ccc(C3=NCCN3)cc2)nc(Nc2ccc(C3=NCCN3)cc2)n1
T/C (dose: 1.25 mg/kg/injection, schedule: Q01DX015 (ip), vehicle: water): 96 % of control
T/C (dose: 2.5 mg/kg/injection, schedule: Q01DX015 (ip), vehicle: water): 96 % of control
T/C (dose: 5.0 mg/kg/injection, schedule: Q01DX015 (ip), vehicle: water): 105 % of control
T/C (dose: 7.5 mg/kg/injection, schedule: Q01DX015 (ip), vehicle: water): 152 % of control
T/C (dose: 10.0 mg/kg/injection, schedule: Q01DX015 (ip), vehicle: water): 102 % of control
T/C (dose: 12.5 mg/kg/injection, schedule: Q01DX001 (ip), vehicle: water): 105 % of control
T/C (dose: 13.3 mg/kg/injection, schedule: Q01DX Z (ip), vehicle: saline): 115 % of control
T/C (dose: 15.0 mg/kg/injection, schedule: Q01DX015 (ip), vehicle: water): 106 % of control
T/C (dose: 20.0 mg/kg/injection, schedule: Q01DX Z (ip), vehicle: saline): 121 % of control
T/C (dose: 25.0 mg/kg/injection, schedule: Q01DX001 (ip), vehicle: water): 103 % of control
T/C (dose: 30.0 mg/kg/injection, schedule: Q01DX015 (ip), vehicle: water): 121 % of control
T/C (dose: 50.0 mg/kg/injection, schedule: Q01DX001 (ip), vehicle: water): 100 % of control
T/C (dose: 60.0 mg/kg/injection, schedule: Q01DX Z (oral), vehicle: carboxymethylcellulose (CMC)): 105 % of control
T/C (dose: 75.0 mg/kg/injection, schedule: Q01DX001 (ip), vehicle: water): 115 % of control
T/C (dose: 120.0 mg/kg/injection, schedule: Q01DX Z (oral), vehicle: carboxymethylcellulose (CMC)): 109 % of control
T/C (dose: 240.0 mg/kg/injection, schedule: Q01DX Z (oral), vehicle: carboxymethylcellulose (CMC)): 96 % of control
T/C (dose: 480.0 mg/kg/injection, schedule: Q01DX Z (oral), vehicle: carboxymethylcellulose (CMC)): 100 % of control

O=NN(CCCl)C(=O)Nc1cc2c3ccccc3ccc2c2ccccc12
T/C (dose: 177.0 mg/kg/injection, schedule: Q01DX009 (ip), vehicle: carboxymethylcellulose (CMC)): 123 % of control
